In patent publication US20160060324A1, “Methods and Compositions for Treating Bleeding Disorders” (THE SCRIPPS RESEARCH INSTITUTE, priority 2013, published 2016):

What was measured:
[1] = test system: C57BL/6J mice; assay: Tolerance induction to T-dependent antigen HEL in mice (anti-HEL titers by ELISA); format: in vivo, mouse; settings: for antibody suppression with varying amounts of ligand on HEL STALs: end of 44-day experiment, two challenges with immunogenic liposomes on days 15 and 30
Procedure: Whole blood (50 μL) was collected from mice via a retro-orbital bleed to obtain the serum after centrifugation (17,000 g, 1 min). Serum was aliquoted and stored at −20° C. Liposomes were delivered via the lateral tail vein in a volume of 200 μL. For studies involving a challenge with soluble (non-liposomal) antigen, mice were injected with 200 μg of HEL dissolved in HBSS and delivered intraperitoneally.
Maxisorp plates were coated (0/N, 4° C.) with the relevant protein (50 μL/well, 10 μg/mL) in PBS. NP4-7-BSA in PBS (Biosearch Technologies) was used to look for anti-NP antibodies. The following day, plates were washed twice in TBS-T (0.1% Tween 20) and blocked (1 hr, RT) with TBS-T containing 1% BSA. Serum was initially diluted between 20-10,000-fold and diluted in 2-3 fold serial dilutions eight times on the ELISA plate. Plates were incubated (1 hr, 37° C.) with serum (50 μL/well), washed four times, and incubated (1 hr, 37° C.) with the appropriate HRP-conjugated secondary antibodies (1:2000, Santa Cruz Biotechnologies). Following five washes, plates were developed (RT, 15 min) in 75 μL/well of TMB substrate (Thermo Fisher) and quenched with 75 μL/well of 2N H2SO4. Absorbance was measured at 450 nm and the endpoint titer was calculated as the dilution of serum that produced an absorbance 2-fold above background.
All liposomes were composed of a 60:35:5 molar ratio of distearoyl phosphatidylcholine (DSPC; Avanti Polar Lipids), cholesterol (Sigma), and pegylated lipids. The total mol % of pegylated lipids was always kept at 5%; made up of the appropriate combination of polyethyleneglycol(PEG2000)-distearoyl phosphoethanolamine (PEG-DSPE; Avanti Polar Lipids), ^BPANeuGc-PEG2000-DSPE, ^BPCNeuAc-PEG2000-DSPE, NP-PEG2000-DSPE or Protein-PEG2000-DSPE. […] The diameter of the liposomes were measured on a zetasizer (Malvern) and were consistently in the range of 100-130±30 nm. […]

[2] = biological target: T1, Siglec-G (Mus musculus, UniProt Q80ZE3); settings: cited from earlier work
T1 sequence (Q80ZE3 18-688): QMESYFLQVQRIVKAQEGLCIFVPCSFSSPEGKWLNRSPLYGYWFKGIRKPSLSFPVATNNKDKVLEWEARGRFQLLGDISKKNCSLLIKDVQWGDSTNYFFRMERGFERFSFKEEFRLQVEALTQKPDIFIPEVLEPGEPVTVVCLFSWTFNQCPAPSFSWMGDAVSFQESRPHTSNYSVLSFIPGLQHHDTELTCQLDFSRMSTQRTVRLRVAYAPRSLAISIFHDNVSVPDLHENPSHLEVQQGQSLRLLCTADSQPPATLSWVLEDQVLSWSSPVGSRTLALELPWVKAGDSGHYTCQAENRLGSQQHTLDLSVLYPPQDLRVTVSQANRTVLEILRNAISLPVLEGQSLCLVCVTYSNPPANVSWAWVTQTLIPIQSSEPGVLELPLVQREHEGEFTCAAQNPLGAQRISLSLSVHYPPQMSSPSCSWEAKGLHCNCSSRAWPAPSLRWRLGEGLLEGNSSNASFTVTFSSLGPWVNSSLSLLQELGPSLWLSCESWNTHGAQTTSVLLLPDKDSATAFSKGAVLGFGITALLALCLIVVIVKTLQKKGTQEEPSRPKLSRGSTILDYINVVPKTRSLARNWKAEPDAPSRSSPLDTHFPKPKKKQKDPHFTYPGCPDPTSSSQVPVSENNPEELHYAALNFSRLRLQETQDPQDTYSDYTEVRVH

[3] = biological target: T2, murine CD22 (Mus musculus, UniProt P35329); settings: higher affinity than natural ligand; cited from earlier work
T2 sequence (P35329 22-868): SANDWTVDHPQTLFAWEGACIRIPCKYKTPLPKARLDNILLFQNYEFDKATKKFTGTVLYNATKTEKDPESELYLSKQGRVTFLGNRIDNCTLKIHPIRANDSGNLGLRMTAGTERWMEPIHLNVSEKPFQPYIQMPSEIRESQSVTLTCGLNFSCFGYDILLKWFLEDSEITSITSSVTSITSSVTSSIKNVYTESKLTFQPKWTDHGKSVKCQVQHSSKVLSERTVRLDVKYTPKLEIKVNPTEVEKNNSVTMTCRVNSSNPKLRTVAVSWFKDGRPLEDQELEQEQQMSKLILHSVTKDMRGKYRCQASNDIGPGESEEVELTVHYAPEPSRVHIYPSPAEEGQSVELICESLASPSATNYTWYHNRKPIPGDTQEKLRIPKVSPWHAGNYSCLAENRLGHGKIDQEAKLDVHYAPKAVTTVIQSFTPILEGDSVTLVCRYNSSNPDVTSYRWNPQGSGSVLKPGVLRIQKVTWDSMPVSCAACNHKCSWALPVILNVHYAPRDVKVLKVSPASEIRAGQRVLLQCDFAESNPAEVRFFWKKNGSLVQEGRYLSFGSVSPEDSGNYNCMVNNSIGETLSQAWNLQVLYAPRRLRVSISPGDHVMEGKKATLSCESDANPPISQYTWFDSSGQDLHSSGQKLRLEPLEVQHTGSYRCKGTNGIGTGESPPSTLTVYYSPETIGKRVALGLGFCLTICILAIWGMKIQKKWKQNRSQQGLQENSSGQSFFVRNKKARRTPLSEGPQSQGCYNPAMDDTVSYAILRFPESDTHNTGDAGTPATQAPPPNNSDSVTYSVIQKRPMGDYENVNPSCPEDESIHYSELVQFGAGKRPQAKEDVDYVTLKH

Row | Compound | antibody suppression with varying amounts of ligand on HEL STALs [1] | cross-reactivity with Siglec-G [2] | difference in EC50 between the two ligands (^BPANeuGc vs NeuGc) on HEL STALs ([1]; antibody suppression titration, FIG. 1E) | affinity for murine CD22 relative to its natural ligand (NeuGcα2-6Galβ1-4GlcNAc) [3] [fold]
1 | CC(=O)NC1C(O)OC(CO)C(OC2OC(COC3(C(=O)O)CC(O)C(NC(=O)CO)C(C(O)C(O)CO)O3)C(O)C(O)C2O)C1O (centres unmarked) [NeuGc, NeuGcα2-6Galβ1-4GlcNAc] | dose-dependent effect on antibody suppression |  |  | 
2 | 9-N-biphenylacetyl-NeuGcα2-6Galβ1-4GlcNAc [^BPANeuGc] | dose-dependent effect on antibody suppression | only a small degree of cross-reactivity | two orders of magnitude difference | 200
